These results are taken from PubChem BioAssay AID334 (DTP/NCI, 2004).

SMILES strings stand for the structures. Several values for one entry are separate records, joined by “and”; a condition that tells them apart may be missing. Equal values may be shown once. Toxic doses and inconclusive results are not listed.

This test concerns CD2F1 mice, intracerebral P388 leukemia, median survival T/C%. The experiment in a line: NCI In Vivo Anticancer Drug Screen. Data for tumor model P388 Leukemia (intracerebral) in CD2F1 (CDF1) mice. The conditions noted are these: endpoint: median survival time, higher = longer survival. The protocol: The antitumor activity of compounds was measured in mice bearing transplantable tumors. Survival or tumor size were measured and the results are expressed as the measurement made in the treated group (T) divided by the measurement made in the vehicle treated control group (C). The tumor model used in this assay is P388 Leukemia (intracerebral) in CD2F1 (CDF1) mice

Where [1] appears, read: dose: 12.5 mg/kg/injection, schedule: Q01DX009 (ip), vehicle: saline with Tween-80.
[2] abbreviates: dose: 50.0 mg/kg/injection, schedule: Q01DX009 (ip), vehicle: saline with Tween-80.
Where [3] appears, read: dose: 100.0 mg/kg/injection, schedule: Q01DX009 (ip), vehicle: saline with Tween-80.
The mark [4] stands for this setting: dose: 32.0 mg/kg/injection, schedule: Q01DX009 (ip), vehicle: Klucel (hydroxypropylcellulose) (HPC).
Setting [5] is: dose: 64.0 mg/kg/injection, schedule: Q01DX009 (ip), vehicle: Klucel (hydroxypropylcellulose) (HPC).
Where [6] appears, read: dose: 128.0 mg/kg/injection, schedule: Q01DX009 (ip), vehicle: Klucel (hydroxypropylcellulose) (HPC).
Where [7] appears, read: dose: 256.0 mg/kg/injection, schedule: Q01DX009 (ip), vehicle: Klucel (hydroxypropylcellulose) (HPC).
[8] abbreviates: dose: 512.0 mg/kg/injection, schedule: Q01DX009 (ip), vehicle: Klucel (hydroxypropylcellulose) (HPC).
Setting [9] is: dose: 32.0 mg/kg/injection, schedule: Q01DX005 (ip), vehicle: Klucel (hydroxypropylcellulose) (HPC).
Where [10] appears, read: dose: 64.0 mg/kg/injection, schedule: Q01DX005 (ip), vehicle: Klucel (hydroxypropylcellulose) (HPC).
[11] abbreviates: dose: 128.0 mg/kg/injection, schedule: Q01DX005 (ip), vehicle: Klucel (hydroxypropylcellulose) (HPC).
[12] abbreviates: dose: 256.0 mg/kg/injection, schedule: Q01DX005 (ip), vehicle: Klucel (hydroxypropylcellulose) (HPC).

For `CC(=O)O[C@H]1C(=O)[C@@]2(C)[C@H]([C@H](OC(=O)c3ccccc3)[C@]3(O)C[C@H](OC(=O)[C@H](O)[C@@H](NC(=O)c4ccccc4)c4ccccc4)C(C)=C1C3(C)C)[C@]1(OC(C)=O)CO[C@@H]1C[C@@H]2O`, the T/C reads like this: (dose: 2.5 mg/kg/injection, schedule: Q01DX009 (ip), vehicle: Klucel (hydroxypropylcellulose) (HPC)) 100 % of control; (dose: 5.0 mg/kg/injection, schedule: Q01DX009 (ip), vehicle: Klucel (hydroxypropylcellulose) (HPC)) 103 % of control; (dose: 10.0 mg/kg/injection, schedule: Q01DX009 (ip), vehicle: Klucel (hydroxypropylcellulose) (HPC)) 96 % of control; (dose: 20.0 mg/kg/injection, schedule: Q01DX009 (ip), vehicle: Klucel (hydroxypropylcellulose) (HPC)) 86 % of control.
With `c1ccc([C@H]2CN3CCSC3=N2)cc1`, the T/C is, setting by setting: (dose: 5.0 mg/kg/injection, schedule: Q01DX009 (ip), vehicle: saline) 113 % of control and 101 % of control and 102 % of control; (dose: 10.0 mg/kg/injection, schedule: Q01DX005 (ip), vehicle: saline) 105 % of control and 107 % of control; (dose: 10.0 mg/kg/injection, schedule: Q01DX009 (ip), vehicle: saline) 97 % of control and 100 % of control and 106 % of control; (dose: 20.0 mg/kg/injection, schedule: Q01DX005 (ip), vehicle: saline) 98 % of control and 102 % of control; (dose: 20.0 mg/kg/injection, schedule: Q01DX009 (ip), vehicle: saline) 113 % of control and 92 % of control and 103 % of control; (dose: 40.0 mg/kg/injection, schedule: Q01DX005 (ip), vehicle: saline) 97 % of control.
With `CC1(CO)C(O)CCC2(C)C1CCC1CC3CC12CCC3(O)CO` (centres undefined), the T/C by setting is: under setting [1], 94 % of control; (dose: 25.0 mg/kg/injection, schedule: Q01DX009 (ip), vehicle: saline with Tween-80) 113 % of control; under setting [2], 100 % of control; under setting [3], 94 % of control; (dose: 200.0 mg/kg/injection, schedule: Q01DX009 (ip), vehicle: saline with Tween-80) 96 % of control.
On to `Cc1cc(OCc2nc(N)nc(N)c2-c2ccc(Cl)c(Cl)c2)ccc1NS(=O)(=O)c1cccc(S(=O)(=O)F)c1`, for which the T/C reads like this: (dose: 117.0 mg/kg/injection, schedule: Q04DX003 (ip), vehicle: saline) 100 % of control; (dose: 176.0 mg/kg/injection, schedule: Q04DX003 (ip), vehicle: saline) 100 % of control; (dose: 264.0 mg/kg/injection, schedule: Q04DX003 (ip), vehicle: saline) 111 % of control; (dose: 400.0 mg/kg/injection, schedule: Q04DX003 (ip), vehicle: saline) 111 % of control.
As for `Nc1ccc2nc3ccc(N)cc3[n+](-c3ccccc3)c2c1`, the T/C is, setting by setting: (dose: 1.0 mg/kg/injection, schedule: Q01DX009 (ip), vehicle: saline) 89 % of control; (dose: 2.0 mg/kg/injection, schedule: Q01DX009 (ip), vehicle: saline) 87 % of control; (dose: 4.0 mg/kg/injection, schedule: Q01DX009 (ip), vehicle: saline) 99 % of control; (dose: 8.0 mg/kg/injection, schedule: Q01DX009 (ip), vehicle: saline) 99 % of control.
As to `CC[n+]1c(-c2ccccc2)c2cc(N)ccc2c2ccc(N)cc21`, the T/C (dose: 6.0 mg/kg/injection, schedule: Q01DX005 (ip), vehicle: saline) is 102 % of control; the T/C (dose: 12.0 mg/kg/injection, schedule: Q01DX005 (ip), vehicle: saline) is 99 % of control and 106 % of control.
For the molecule `CC1(C)N=C(N)N=C(N)N1c1ccc(CCCCc2ccc(S(=O)(=O)F)cc2Cl)c(Cl)c1`, the T/C was 97 % of control under setting [1]; 116 % of control under setting [2]; 96 % of control under setting [3]; 102 % of control (dose: 133.0 mg/kg/injection, schedule: Q04DX003 (ip), vehicle: saline with Tween-80); 108 % of control (dose: 200.0 mg/kg/injection, schedule: Q04DX003 (ip), vehicle: saline with Tween-80); 95 % of control (dose: 300.0 mg/kg/injection, schedule: Q04DX003 (ip), vehicle: saline with Tween-80).
For `Nc1nncs1`, the T/C is, setting by setting: (dose: 64.0 mg/kg/injection, schedule: Q01DX005 (ip), vehicle: saline with Tween-80) 119 % of control; (dose: 128.0 mg/kg/injection, schedule: Q01DX005 (ip), vehicle: saline with Tween-80) 160 % of control and 169 % of control; (dose: 256.0 mg/kg/injection, schedule: Q01DX005 (ip), vehicle: saline with Tween-80) 180 % of control.
Turning to `C[C@]12C=CC(=O)C=C1CC[C@@H]1[C@@H]2C(=O)C[C@@]2(C)[C@H]1CC[C@]2(O)C(=O)CO`, the T/C is 95 % of control and 99 % of control (dose: 8.0 mg/kg/injection, schedule: Q01DX009 (ip), vehicle: Klucel (hydroxypropylcellulose) (HPC)); 100 % of control and 104 % of control (dose: 16.0 mg/kg/injection, schedule: Q01DX009 (ip), vehicle: Klucel (hydroxypropylcellulose) (HPC)); 98 % of control and 102 % of control under setting [4]; 99 % of control and 104 % of control under setting [5]; 95 % of control and 102 % of control under setting [6]; 102 % of control and 104 % of control under setting [7]. The T/C under setting [8] was 95 % of control and 99 % of control.
As to `NC(CSC(c1ccccc1)(c1ccccc1)c1ccccc1)C(=O)O` (centres undefined), the T/C by setting is: under setting [9], 99 % of control and 106 % of control; under setting [10], 102 % of control and 110 % of control; under setting [11], 114 % of control and 100 % of control; under setting [12], 121 % of control.
As to `CCCCCCCC/C=C/CCCCCCCC(=O)Nc1ccn(C2OC(CO)C(O)C2O)c(=O)n1` (centres undefined), the T/C by setting is: (dose: 12.5 mg/kg/injection, schedule: Q01DX009 (ip), vehicle: saline) 155 % of control; (dose: 25.0 mg/kg/injection, schedule: Q01DX009 (ip), vehicle: saline) 197 % of control; (dose: 50.0 mg/kg/injection, schedule: Q01DX009 (ip), vehicle: saline) 262 % of control.
For `CCN(CC)c1ccc2cc3ccc(=[N+](CC)CC)cc-3oc2c1`, the T/C is, setting by setting: (dose: 4.0 mg/kg/injection, schedule: Q01DX005 (ip), vehicle: suspension in saline) 102 % of control; (dose: 8.0 mg/kg/injection, schedule: Q01DX005 (ip), vehicle: suspension in saline) 103 % of control.
For the molecule `COc1ccc2c(c1OC(C)=O)-c1cc(OC(C)=O)cc3c1C(C2)N(C(=O)CN(CCCl)CCCl)CC3` (centres undefined), the T/C is 104 % of control (dose: 1.5 mg/kg/injection, schedule: Q01DX009 (ip), vehicle: DMSO); 101 % of control (dose: 3.0 mg/kg/injection, schedule: Q01DX009 (ip), vehicle: DMSO); 100 % of control (dose: 6.0 mg/kg/injection, schedule: Q01DX009 (ip), vehicle: DMSO); 88 % of control (dose: 12.0 mg/kg/injection, schedule: Q01DX009 (ip), vehicle: DMSO).
With `CC(C)=CCC1=C(O)c2ccccc2C(=O)C1=O`, the T/C is 104 % of control under setting [9], 104 % of control under setting [10], 95 % of control under setting [11] and 92 % of control under setting [12].
In the case of `CO[C@H]1C[C@@H]2CC[C@@H](C)[C@@](O)(O2)C(=O)C(=O)N2CCCC[C@H]2C(=O)O[C@H]([C@H](C)C[C@@H]2CC[C@@H](O)[C@H](OC)C2)CC(=O)[C@H](C)C=C(C)[C@@H](O)[C@@H](OC)C(=O)[C@H](C)C[C@H](C)/C=C/C=C/C=C1C`, the T/C (dose: 400.0 mg/kg/injection, schedule: Q01DX009 (ip), vehicle: gum acacia) is 107 % of control.
On to `COCC(O)Cn1ccnc1[N+](=O)[O-]` (centres undefined), for which the T/C reads like this: under setting [4], 113 % of control; under setting [5], 102 % of control; under setting [6], 96 % of control; under setting [7], 102 % of control; under setting [8], 102 % of control.
